Results as given in paper PMC6396489 (Cell Communication and Signaling : CCS, 2019).
Positions count from the first letter of the chain named.

Columns and labels:
Shp1 = target: T1, Shp1 (Homo sapiens, UniProt P29350); assay: Steady-state Trp fluorescence emission spectroscopy of purified Shp1; format: binding
T1 construct: the C-terminal truncated form of human Shp1 cDNA (His-Shp1; amino acids 1–529); made in house; host or cells: E. coli BL21(DE3)
T1 sequence (P29350 1-529 isoform P29350-3): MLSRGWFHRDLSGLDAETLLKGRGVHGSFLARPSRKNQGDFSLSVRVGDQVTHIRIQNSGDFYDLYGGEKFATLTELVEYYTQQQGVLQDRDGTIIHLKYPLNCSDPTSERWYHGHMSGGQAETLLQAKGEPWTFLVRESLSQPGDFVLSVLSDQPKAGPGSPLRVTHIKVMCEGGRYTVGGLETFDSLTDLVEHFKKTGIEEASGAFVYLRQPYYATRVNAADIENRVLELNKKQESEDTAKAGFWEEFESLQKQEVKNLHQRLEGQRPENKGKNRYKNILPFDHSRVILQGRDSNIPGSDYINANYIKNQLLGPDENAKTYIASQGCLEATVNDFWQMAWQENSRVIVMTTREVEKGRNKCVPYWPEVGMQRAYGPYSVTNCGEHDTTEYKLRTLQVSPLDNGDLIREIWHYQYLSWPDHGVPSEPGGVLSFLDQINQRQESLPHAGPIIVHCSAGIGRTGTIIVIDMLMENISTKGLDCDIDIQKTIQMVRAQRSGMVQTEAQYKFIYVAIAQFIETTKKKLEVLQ
Description: (§1) The absorption spectra of Shp1 were recorded using a Varian Cary 1 spectrophotometer. Steady-state fluorescence emission measurements were performed with a K2 fluorometer (ISS, Champaign, IL, USA) equipped with a two-cell temperature-controlled sample holder. To selectively excite Trp residues, the excitation wavelength was set at 295 nm with a slit width of 1 nm. To avoid the inner-filter effect, all steady-state fluorescence measurements were performed on Shp1 with optical densities at 295 nm less than 0.1 OD. All measurements were made at 25 °C with the temperature of the samples determined in the cuvette with an accuracy of ±0.2 °C. For each experiment, the Shp1 concentration was fixed at 1.2 μM, while GroPIns4P was varied from 0.0 to 5.0 μM. Thus, a 500 μL solution containing 1.2 μM Shp1 dissolved in PBS pH 7.4 was titrated by successive additions of GroPIns4P (dissolved in PBS buffer, pH 7.4). After each addition, the samples were incubated for 2 min and fluorescence emission spectra were recorded between 310 and 410 nm in triplicate. To exclude the influence of sample dilution, fluorescence titration experiments were performed by adding the same amount of PBS buffer in the total volume (500 μL).

[1] = target: T2, Shp1 S118A/R138E/S140A mutant (Homo sapiens, UniProt P29350, R136E/S116A/S138A); assay: Trp fluorescence emission spectroscopy of Shp1 S118A/R138E/S140A mutant; format: binding; conditions: S118A/R138E/S140A vs wild type
T2 construct: a tailless-form of Shp1 (residues 1–529) has previously been used [25] and it is used also in this study; 6xHis (N); made in house; host or cells: E. coli BL21(DE3)
T2 sequence (P29350 1-529 isoform P29350-3 S118A/R138E/S140A): T1 sequence (P29350 1-529 isoform P29350-3) with S118A, R138E, S140A
Description: as §1

NIH3T3 cells = assay: Wound-healing assay; format: cell-based
Description: To perform the wound-healing assay, NIH3T3 cells were seeded in 6-well tissue culture plates to a final density of 3 × 10^5 cells/well and maintained at 37 °C and 5% CO2 for 24 h until confluence before being starved overnight in DMEM containing 1% bovine serum. The cell monolayer was wounded by scratching with a 10 μL standard sterile pipette tip. The scratched monolayer was rinsed twice with DMEM containing 1% bovine serum to remove cell debris and incubated with or without 50 μM GroPIns4P. […] In detail, the input image was processed by applying a Sobel edge detector [26], obtaining a gradient image. A threshold process was then performed on the gradient image to obtain the foreground corresponding to the wound area. Particularly, all of the pixels of the gradient image with values less than the threshold θ were assumed to be pixels of the foreground (experimentally, θ is set to 4). Finally, procedures based on morphological operations were used to remove small regions and to fill holes of the wound area to complete detection and analysis.

O=P(O)(O)OC1C(O)C(O)C(OP(=O)(O)OCC(O)CO)C(O)C1O (stereo not drawn) [GroPIns4P, glycerophosphoinositol 4-phosphate]
EC50 (Shp1; Shp1 1.2 μM, GroPIns4P 0.0 to 5.0 μM, emission at 332 nm, read-out: apparent EC50 of Trp fluorescence quenching): ~0.6 µM | maximal quenching of the initial emission (Shp1; at 5 μM GroPIns4P): 18% | decrease of binding efficiency of the mutated protein [1]: up to 50% | increase of wound closure compared to the control (NIH3T3 cells; 50 μM, 6 h after scratching): 65% | wound closure (NIH3T3 cells; 50 μM, at 30 h): almost complete | rescue of EGF effect in cells treated with cPLA2α inhibitor (NIH3T3 cells; EGF 10 ng/ml, cPLA2α inhibitor, 50 μM GroPIns4P): could be rescued
